Results published in patent US8586747B2, “3,3-dimethyl tetrahydroquinoline derivatives” (Hoffmann-La Roche Inc., priority 2010, dated 2013).

test system: AMP-activated protein kinase (AMPK); test: ADP Quest assay for AMPK activators; assay type: biochemical; parameters: key: fold AMPK activation with vs without activator at 30 µM; conditions: fold of AMPK activation to phosphorylate SAMS peptide without and with an activator at the concentration of 30 µM
How it was run: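 E30, the fold increase in SAMS peptide phosphorylation at 30 µM compound relative to no activator, is derived from kinetic fluorescent detection of ADP (ex 530, em 590 nm). AMPK starts the ATP-containing reaction at room temperature; compounds span […] by 2-fold steps, AMP serves as reference.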

Point of comparison: `CC(C)Oc1ccc(-c2cccc(C3Nc4ccc(C(=O)O)cc4CC3(C)C)c2)cc1` (stereo not shown) [Example 84, 2-(4′-Isopropoxy-biphenyl-3-yl)-3,3-dimethyl-1,2,3,4-tetrahydro-quinoline-6-carboxylic acid], E30 1.25. Against it:
- CNC(=O)C(C)(C)Nc1cccc(C2Nc3ccc(C(=O)NS(C)(=O)=O)cc3CC2(C)C)c1 (stereo not shown) [Example 39, 2-[3-(6-Methanesulfonylaminocarbonyl-3,3-dimethyl-1,2,3,4-tetrahydro-quinolin-2-yl)-phenylamino]-2,N-dimethyl-propionamide] — higher, 1.36
- CC1(C)Cc2cc(C(=O)O)ccc2NC1c1ccc(F)c(NC(=O)C2CCC2)c1 (stereo not shown) [Example 194, 2-(3-(Cyclobutanecarboxamido)-4-fluorophenyl)-3,3-dimethyl-1,2,3,4-tetrahydroquinoline-6-carboxylic acid] — the same, 1.25
- Cc1ccc(N2CCN(c3cccc(C4Nc5ccc(C(=O)NS(=O)(=O)C6CC6)cc5CC4(C)C)c3)CC2)c(C)c1 (stereo not shown) [Example 91, Cyclopropanesulfonic acid (2-{3-[4-(2,4-dimethyl-phenyl)-piperazin-1-yl]-phenyl}-3,3-dimethyl-1,2,3,4-tetrahydro-quinoline-6-carbonyl)-amide] — higher, 1.31
- CC1(C)Cc2cc(C(=O)NS(=O)(=O)C3CC3)ccc2NC1c1cc(F)cc(C2CCCCC2)c1 (stereo not shown) [Example 70, Cyclopropanesulfonic acid [2-(3-cyclohexyl-5-fluoro-phenyl)-3,3-dimethyl-1,2,3,4-tetrahydro-quinoline-6-carbonyl]-amide] — lower, 1.23
- CC1(C)Cc2cc(C(=O)O)ccc2NC1c1cccc(NC(=O)N2CCOCC2)c1 (stereo not shown) [Example 21, 3,3-Dimethyl-2-{3-[(morpholine-4-carbonyl)-amino]-phenyl}-1,2,3,4-tetrahydro-quinoline-6-carboxylic acid] — higher, 1.42
- CC(C)c1ccc(-c2cccc(C3Nc4c(cc(Cl)cc4C(=O)O)CC3(C)C)c2)cc1 (stereo not shown) [Example 140, 6-Chloro-2-(4′-isopropyl-biphenyl-3-yl)-3,3-dimethyl-1,2,3,4-tetrahydro-quinoline-8-carboxylic acid] — higher, 1.34
- CCN1CCCC1CNC(=O)c1cccc(C2Nc3ccc(C(=O)O)cc3CC2(C)C)c1 (stereo not shown) [Example 205, 2-(3-((1-Ethylpyrrolidin-2-yl)methylcarbamoyl)phenyl)-3,3-dimethyl-1,2,3,4-tetrahydroquinoline-6-carboxylic acid] — higher, 1.38
- CC(C)[C@@H]1COC(=O)N1c1cccc(C2Nc3ccc(C(=O)NS(C)(=O)=O)cc3CC2(C)C)c1 (stereo partly drawn) [Example 123, N-{2-[3-((R)-4-Isopropyl-2-oxo-oxazolidin-3-yl)-phenyl]-3,3-dimethyl-1,2,3,4-tetrahydro-quinoline-6-carbonyl}-methanesulfonamide] — higher, 1.36
- CC1(C)Cc2cc(C(=O)O)ccc2NC1c1ccc(F)c(NC(=O)c2ccccn2)c1 (stereo not shown) [Example 180, 2-(4-Fluoro-3-(picolinamido)-phenyl)-3,3-dimethyl-1,2,3,4-tetrahydroquinoline-6-carboxylic acid] — higher, 1.32
- CC1(C)Cc2cc(C(=O)O)ccc2NC1c1cccc(-c2ccc(Cl)cc2)c1 (stereo not shown) [Example 109, 2-(4′-Chloro-biphenyl-3-yl)-3,3-dimethyl-1,2,3,4-tetrahydro-quinoline-6-carboxylic acid] — lower, 1.24
- CC1(C)Cc2cc(C(=O)O)ccc2NC1c1ccc(NC(=O)c2ccc(F)cc2)cc1 (stereo not shown) [Example 182, 2-(4-(4-Fluorobenzamido)phenyl)-3,3-dimethyl-1,2,3,4-tetrahydroquinoline-6-carboxylic acid] — higher, 1.26
- CC1(C)Cc2cc(C(=O)NS(C)(=O)=O)ccc2NC1c1cccc(N2CCN(c3ccc(Cl)cc3)CC2)c1 (stereo not shown) [Example 88, N-(2-{3-[4-(4-Chloro-phenyl)-piperazin-1-yl]-phenyl}-3,3-dimethyl-1,2,3,4-tetrahydro-quinoline-6-carbonyl)-methanesulfonamide] — higher, 1.35
- CC(C)C1COC(=O)N1c1cccc(C2Nc3ccc(C(=O)O)cc3CC2(C)C)c1 (stereo in doubt) [Example 119, 2-[3-((S)-4-Isopropyl-2-oxo-oxazolidin-3-yl)-phenyl]-3,3-dimethyl-1,2,3,4-tetrahydro-quinoline-6-carboxylic acid] — higher, 1.5
- CC1(C)Cc2cc(C(=O)O)ccc2NC1c1ccc(F)c(NS(=O)(=O)c2ccccc2F)c1 (stereo not shown) [Example 209, 2-(4-Fluoro-3-(2-fluorophenylsulfonamido)phenyl)-,3-dimethyl-1,2,3,4-tetrahydroquinoline-6-carboxylic acid] — higher, 1.28
- CC(C)NC(=O)C(C)(C)Nc1cccc(C2Nc3ccc(C(=O)NS(C)(=O)=O)cc3CC2(C)C)c1 (stereo not shown) [Example 43, N-isopropyl-2-[3-(6-methanesulfonylaminocarbonyl-3,3-dimethyl-1,2,3,4-tetrahydro-quinolin-2-yl)-phenylamino]-2-methyl-propionamide] — higher, 1.29
- CNC(=O)C(C)(C)Nc1cccc(C2Nc3c(cc(Cl)cc3C(=O)O)CC2(C)C)c1 (stereo not shown) [Example 79, 6-Chloro-3,3-dimethyl-2-[3-(1-methyl-1-methylcarbamoyl-ethylamino)-phenyl]-1,2,3,4-tetrahydro-quinoline-8-carboxylic acid] — higher, 1.33
- CN(C)c1cc(F)cc(C2Nc3ccc(C(=O)NS(C)(=O)=O)cc3CC2(C)C)c1 (stereo not shown) [Example 50, N-[2-(3-Dimethylamino-5-fluoro-phenyl)-3,3-dimethyl-1,2,3,4-tetrahydro-quinoline-6-carbonyl]-methanesulfonamide] — higher, 1.61
- CN(CC(=O)O)C(=O)c1ccc2c(c1)CC(C)(C)C(c1cccc(N3CCOCC3)c1)N2 (stereo not shown) [Example 23, {[3,3-Dimethyl-2-(3-morpholin-4-yl-phenyl)-1,2,3,4-tetrahydro-quinoline-6-carboxyl]-methyl-amino}-acetic acid] — higher, 1.32
- CC(C)C(=O)Nc1ccc(C2Nc3ccc(C(=O)O)cc3CC2(C)C)cc1 (stereo not shown) [Example 178, 2-(4-Isobutyramidophenyl)-3,3-dimethyl-1,2,3,4-tetrahydroquinoline-6-carboxylic acid] — higher, 1.36
- CC1(C)Cc2cc(C(=O)NS(=O)(=O)C3CC3)ccc2NC1c1ccc(N2CCOCC2)cc1 (stereo not shown) [Example 73, Cyclopropanesulfonic acid [3,3-dimethyl-2-(4-morpholin-4-yl-phenyl)-1,2,3,4-tetrahydro-quinoline-6-carbonyl]-amide] — lower, 1.21
- CC1(C)Cc2cc(C(=O)O)ccc2NC1c1cccc(NC(=O)c2ccccn2)c1 (stereo not shown) [Example 4, 3,3-Dimethyl-2-{3-[(pyridine-2-carbonyl)-amino]-phenyl}-1,2,3,4-tetrahydro-quinoline-6-carboxylic acid] — higher, 1.33
- CC(C)(Oc1cccc(C2Nc3ccc(C(=O)O)cc3CC2(C)C)c1)C(=O)O (stereo not shown) [Example 233, 2-(3-(2-Carboxypropan-2-yloxy)phenyl)-3,3-dimethyl-1,2,3,4-tetrahydroquinoline-6-carboxylic acid] — higher, 1.29
- CC1(C)Cc2c(ccc(F)c2C(=O)O)NC1c1cccc(N2CCOCC2)c1 (stereo not shown) [Example 121, 6-Fluoro-3,3-dimethyl-2-(3-morpholin-4-yl-phenyl)-1,2,3,4-tetrahydro-quinoline-5-carboxylic acid] — higher, 1.42
- CC1(C)Cc2cc(C(=O)O)ccc2NC1c1cccc(N2CCNCC2)c1 (stereo not shown) [Example 102, 3,3-Dimethyl-2-(3-piperazin-1-yl-phenyl)-1,2,3,4-tetrahydro-quinoline-6-carboxylic acid] — higher, 1.4
- COC(=O)c1cc(Cl)cc2c1NC(c1cccc(NC(C)(C)C(=O)O)c1)C(C)(C)C2 (stereo not shown) [Example 78, 2-[3-(1-Carboxy-1-methyl-ethylamino)-phenyl]-6-chloro-3,3-dimethyl-1,2,3,4-tetrahydro-quinoline-8-carboxylic acid methyl ester] — higher, 1.79
- CC1(C)Cc2cc(C(=O)O)ccc2NC1c1ccccc1NC(=O)C1CC1 (stereo not shown) [Example 214, 2-(2-(Cyclopropanecarboxamido)phenyl)-3,3-dimethyl-1,2,3,4-tetrahydroquinoline-6-carboxylic acid] — higher, 1.41
- CC1(C)Cc2cc(C(=O)O)ccc2NC1c1ccc(NS(=O)(=O)c2cccc(F)c2)cc1 (stereo not shown) [Example 212, 2-(4-(3-Fluorophenylsulfonamido)phenyl)-3,3-dimethyl-1,2,3,4-tetrahydroquinoline-6-carboxylic acid] — higher, 1.28
- CC1(C)Cc2cc(C(=O)O)ccc2NC1c1cccc(NC(=O)N2CCCCC2)c1 (stereo not shown) [Example 22, 3,3-Dimethyl-2-{3-[(piperidine-1-carbonyl)-amino]-phenyl}-1,2,3,4-tetrahydro-quinoline-6-carboxylic acid] — higher, 1.39
- CN1CCC(NC(=O)c2cccc(C3Nc4ccc(Cl)cc4CC3(C)C)c2)C1 (stereo not shown) [Example 225, 3-(6-Chloro-3,3-dimethyl-1,2,3,4-tetrahydroquinolin-2-yl)-N-(1-methylpyrrolidin-3-yl)benzamide] — higher, 1.64
- CNCCN(C)c1cccc(C2Nc3ccc(C(=O)O)cc3CC2(C)C)c1 (stereo not shown) [Example 120, 3,3-Dimethyl-2-{3-[methyl-(2-methylamino-ethyl)-amino]-phenyl}-1,2,3,4-tetrahydro-quinoline-6-carboxylic acid] — higher, 1.5
- CC1(C)Cc2cc(C(=O)O)ccc2NC1c1cccc(C(=O)N2CCCC2)c1 (stereo not shown) [Example 171, 3,3-Dimethyl-2-(3-(pyrrolidine-1-carbonyl)phenyl)-1,2,3,4-tetrahydroquinoline-6-carboxylic acid] — higher, 1.36
- CC1(C)Cc2cc(C(=O)O)ccc2NC1c1ccccc1NS(=O)(=O)c1ccccc1F (stereo not shown) [Example 219, 2-(2-(2-Fluorophenylsulfonamido)phenyl)-3,3-dimethyl-1,2,3,4-tetrahydroquinoline-6-carboxylic acid] — higher, 2.57
- CC1(C)Cc2cc(C(=O)O)ccc2NC1c1cccc(NC(=O)NCc2ccccc2)c1 (stereo not shown) [Example 1, 2-[3-(3-Benzyl-ureido)-phenyl]-3,3-dimethyl-1,2,3,4-tetrahydro-quinoline-6-carboxylic acid] — higher, 1.43
